Assay results reported in US20250303354A1, “ACIDIC GAS REMOVAL AGENT, ACIDIC GAS REMOVAL METHOD, ACIDIC GAS ABSORPTION DEVICE, AND CLEANING DEVICE” (AGC Inc., priority 2022, published 2025).

Assay: Amounts of carbon dioxide absorption in test liquid (physical absorption, pressure-drop method)
Format: physicochemical
Conditions: 30° C.; for Amount of carbon dioxide absorption, not in coexistence of water a: 100% by mass of compound as test liquid; for Amount of carbon dioxide absorption, not in coexistence of water a / Amount of carbon dioxide absorption, in coexistence of water b: calculated via Henry's constant for P 3.0 MPa; for Amount of carbon dioxide absorption, in coexistence of water b: mixture of 90% by mass of compound and 10% by mass of water; for Carbon dioxide absorption ratio b/a: ratio of absorption in coexistence of water to not in coexistence of water, 3 MPa
Description: A 300-mL pressure-resistant container (A) connected to a carbon dioxide cylinder by piping, and a 150-mL pressure-resistant container were prepared, and amounts of carbon dioxide absorption were determined through a procedure of (i) to (iv) shown below. A regulator and a pressure gage were connected between the carbon dioxide cylinder and pressure-resistant container (A), and pressure-resistant container (A) and pressure-resistant container (B) were soaked in a water bath.
(i) The temperature of the water bath was set to 30° C., and pressure-resistant container (B) containing 50 mL of a test liquid was degassed under reduced pressure with a vacuum pump.
(ii) Pressure-resistant container (A) was filled with carbon dioxide depressurized to 0.20 MPa through the regulator, and the pressure at that time was measured. Thereafter, pressure-resistant container (A) and pressure-resistant container (B) were connected together, and the pressure after 1 hour was measured. Assuming that carbon dioxide in an amount corresponding to the reduction of pressure was absorbed in the test liquid, the amount in moles of adsorbed carbon dioxide per unit mass (mol/kg) was calculated.
(iii) The same operation as (ii) was performed at 0.35 MPa, 0.50 MPa, 0.60 MPa, and 0.80 MPa, and the Henry's constant, Hb (MPa·kg/mol), which indicates the pressure dependence of the amount in moles of adsorbed carbon dioxide (mol/kg), was calculated.
(iv) The amount of carbon dioxide absorption per unit mass of the test liquid (g/kg) was calculated from the following expression:
n: molar mass of carbon dioxide=44 (g/mol).
In the calculation, P (MPa) was 3.0 MPa, which is a representative condition for using physical absorption liquid.
For the case that an acidic gas removing agent (100% by mass of compound) was used as a test liquid (not in coexistence of water) and the case that a mixture of 90% by mass of the acidic gas removing agent (compound) and 10% by mass of water was used as a test liquid (in the coexistence of water), the amounts of carbon dioxide absorption in the test liquids were determined.
The carbon dioxide absorption ratio is the ratio (b/a) of the amount of carbon dioxide absorption per unit mass of a mixture of 90% by mass of an acidic gas removing agent and 10% by mass of water, b (g/kg), to the amount of carbon dioxide absorption per unit mass of the acidic gas removing agent, a (g/kg).

Amount of carbon dioxide absorption, not in coexistence of water a | Amount of carbon dioxide absorption, in coexistence of water b | Carbon dioxide absorption ratio b/a | Compound
128 g/kg | 98 g/kg | 0.77 | CCCCOCCOCC(C)OCC(C)OCC(C)O (stereo not drawn) [A-2]
129 g/kg | 120 g/kg | 0.93 | C=CCOCC(C)OCC(C)OCC(C)OCC(C)OCC(C)OCC(C)OCC(C)OC (stereo not drawn) [B-5]
140 g/kg | 139 g/kg | 0.99 | COC(C)COC(C)COC(C)COC(C)COC(C)COC(C)COCCOCC(C)C (stereo not drawn) [B-7]
92 g/kg | 65 g/kg | 0.71 | CC(O)COC(C)COC(C)CO (stereo not drawn) [C-2, tripropylene glycol, reference compound]
134 g/kg | 120 g/kg | 0.89 | CCCCOCC(C)OCC(C)OCC(C)OCC(C)OCC(C)OCC(C)OCC(C)OC (stereo not drawn) [B-1]
72 g/kg | 56 g/kg | 0.78 | OCCCCOCCCCOCCCCO [C-3, PTMG250, reference compound]
142 g/kg | 128 g/kg | 0.90 | COC(C)COC(C)COC(C)COC(C)COC(C)COC(C)COCCOC(C)(C)C (stereo not drawn) [B-4]
132 g/kg | 112 g/kg | 0.85 | CCCCOCC(C)OCC(C)OCC(C)OCC(C)O (stereo not drawn) [A-1]
149 g/kg | 134 g/kg | 0.90 | CCCCOCCOCCOCC(C)OCC(C)OCC(C)OCC(C)OCC(C)OC (stereo not drawn) [B-3]
104 g/kg | 79 g/kg | 0.76 | CC(O)COC(C)COC(C)COCC(C)OCC(C)OCC(C)OCC(C)O (stereo not drawn) [A-8]
157 g/kg | 140 g/kg | 0.89 | CCCCOCCOCC(C)OCC(C)OCC(C)OCC(C)OCC(C)OC (stereo not drawn) [B-2]
144 g/kg | 122 g/kg | 0.85 | COC(C)COC(C)COC(C)COCC(C)OCC(C)OCC(C)OCC(C)OC (stereo not drawn) [B-6]
